One experiment has as its system mice. Description: Mouse tail suspension test. The format is in vivo. To be noted: 30 mg/kg PO.
For experiment [1], the target named is human dopamine transporter (Homo sapiens (Human), UniProt Q01959). Briefly: Dopamine functional uptake assay, recombinant human transporter in CHO-K1 or HEK293 cells. To be noted: read-out: hDAT IC50. The format is cell-based.
Experiment [2] addresses 5-HT Transporter (SERT) sites in mouse brain (Mus musculus (Mouse), UniProt Q60857). Briefly: Ex vivo [3H] citalopram binding to SERT sites in mouse brain after oral dosing. To be noted: mice, 60 min after treatment; for receptor occupancy at 1 mg/kg / receptor occupancy at 3 mg/kg / receptor occupancy at 10 mg/kg / receptor occupancy at 30 mg/kg: mouse.
Experiment [3] deals with DA Transporter (DAT) sites in mouse brain (Mus musculus (Mouse), UniProt Q61327). Briefly: Ex vivo [3H] WIN 35428 binding to DAT sites in mouse brain after oral dosing. To be noted: mice, 60 min after treatment; for receptor occupancy at 1 mg/kg / receptor occupancy at 3 mg/kg / receptor occupancy at 10 mg/kg / receptor occupancy at 30 mg/kg: mouse.
The target of experiment [4] is T1, Norepinephrine Transporter (NET) sites in mouse brain (Mus musculus (Mouse), UniProt O55192). Conditions: mice, 60 min after treatment.
The target in experiment [5] is T1, Norepinephrine Transporter (NET) sites in mouse brain. Description: in vivo. Conditions: po, read-out: NET % Transporter Occupancy.

Read-outs that look alike come from different tables or passages of the source.

Data on 3 compounds can be found in patent US10562878B2, “Cycloalkylamines as monoamine reuptake inhibitors” (Sunovion Pharmaceuticals Inc., priority 2006, dated 2020).

human dopamine transporter, sequence (Q01959 whole entry): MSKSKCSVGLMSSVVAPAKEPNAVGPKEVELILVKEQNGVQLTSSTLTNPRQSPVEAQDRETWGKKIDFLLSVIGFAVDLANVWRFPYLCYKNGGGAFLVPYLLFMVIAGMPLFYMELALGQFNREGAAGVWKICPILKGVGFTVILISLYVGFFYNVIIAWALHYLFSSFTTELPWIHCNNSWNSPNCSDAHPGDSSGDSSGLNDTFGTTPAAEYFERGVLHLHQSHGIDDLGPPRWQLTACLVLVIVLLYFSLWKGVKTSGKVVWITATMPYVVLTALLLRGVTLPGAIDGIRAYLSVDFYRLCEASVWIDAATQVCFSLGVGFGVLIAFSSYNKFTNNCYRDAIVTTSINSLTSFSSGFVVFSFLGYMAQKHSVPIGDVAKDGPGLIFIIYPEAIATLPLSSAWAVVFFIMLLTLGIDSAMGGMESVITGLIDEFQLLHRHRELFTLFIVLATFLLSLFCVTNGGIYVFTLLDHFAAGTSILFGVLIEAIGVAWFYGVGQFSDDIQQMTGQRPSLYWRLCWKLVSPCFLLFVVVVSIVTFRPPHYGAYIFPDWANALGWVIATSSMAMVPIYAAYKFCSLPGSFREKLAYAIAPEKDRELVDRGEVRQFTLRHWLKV

With `CN(C)C[C@]1(c2ccc3ccccc3c2)CCCC[C@H]1O` (relative stereo) [164 E2, trans-2-((dimethylamino)methyl)-2-(naphthalen-2-yl)cyclohexanol], in the experiment with mice, the “Mouse Tail Suspension Mean Immobility Time ± S.E.M.” value stood at 141.8 ± 6.0.
One may read the IC50 as the concentration that gives 50% inhibition. On to `CN(C)CC1(c2ccc(Cl)c(Cl)c2)CCC(C)(O)CC1` (centres unmarked) [Compound 277, 4-(3,4-dichlorophenyl)-4-((dimethylamino)methyl)-1-methylcyclohexanol], for which the IC50 in experiment [1] came out at 0.041 µM. Moreover, the “SERT Mean Specific Binding ± S.E.M.” value in experiment [2] (1 mg/kg PO) is listed as 1508 ± 86 dpm; in experiment [2] (3 mg/kg PO) it was 1491 ± 75 dpm; in experiment [2] (10 mg/kg PO) it was 1416 ± 43 dpm; in experiment [2] (30 mg/kg PO), 1384 ± 101 dpm. Further, the receptor occupancy at 1 mg/kg was -6% in experiment [2] (1 mg/kg PO), 17% in experiment [3] (1 mg/kg PO) and 6% in experiment [5]. In addition, the values for the receptor occupancy at 3 mg/kg in experiment [2] (3 mg/kg PO), in experiment [3] (3 mg/kg PO) and in experiment [5] were -5%, 21% and 18%, respectively. Besides, the receptor occupancy at 10 mg/kg in experiment [2] (10 mg/kg PO) was 0%; in experiment [3] (10 mg/kg PO), 23%; in experiment [5], 47%. The receptor occupancy at 30 mg/kg in experiment [2] (30 mg/kg PO) is 3%; in experiment [3] (30 mg/kg PO) it was 26%; in experiment [5], 71%. Besides, the “DAT Mean Specific Binding ± S.E.M.” value in experiment [3] (1 mg/kg PO) is listed as 35827 ± 2302 dpm; in experiment [3] (3 mg/kg PO), 34136 ± 4104 dpm; in experiment [3] (10 mg/kg PO) it was 33230 ± 2807 dpm; in experiment [3] (30 mg/kg PO), 31743 ± 4406 dpm. Further, the “NET Mean Specific Binding ± S.E.M.” value in experiment [4] (1 mg/kg PO) amounted to 950 ± 46 dpm; in experiment [4] (3 mg/kg PO), 824 ± 30 dpm; in experiment [4] (10 mg/kg PO), 533 ± 25 dpm; in experiment [4] (30 mg/kg PO), 294 ± 42 dpm.
As for `CNCC1(c2ccc(Cl)c(Cl)c2)CCC(C)(O)CC1` (centres unmarked) [Compound 276, 4-(3,4-dichlorophenyl)-1-methyl-4-((methylamino)methyl)cyclohexanol], the IC50 in experiment [1] came out at 0.071 µM. In addition, the “SERT Mean Specific Binding ± S.E.M.” value was 3743 ± 199 dpm in experiment [2] (1 mg/kg PO), 3685 ± 292 dpm in experiment [2] (3 mg/kg PO), 3092 ± 207 dpm in experiment [2] (10 mg/kg PO) and 1558 ± 169 dpm in experiment [2] (30 mg/kg PO). For the same compound, the receptor occupancy at 1 mg/kg in experiment [2] (1 mg/kg PO) is 12%; in experiment [3] (1 mg/kg PO), -21%; in experiment [5], -4%. Moreover, the receptor occupancy at 3 mg/kg in experiment [2] (3 mg/kg PO) is 14%; in experiment [3] (3 mg/kg PO) it was -9%; in experiment [5], -6%. Further, the values for the receptor occupancy at 10 mg/kg in experiment [2] (10 mg/kg PO), in experiment [3] (10 mg/kg PO) and in experiment [5] were 28%, -6% and -1%, respectively. In addition, the results for the receptor occupancy at 30 mg/kg in experiment [2] (30 mg/kg PO), in experiment [3] (30 mg/kg PO) and in experiment [5] were 64%, 31% and 26%, respectively. Also, the “DAT Mean Specific Binding ± S.E.M.” value in experiment [3] (3 mg/kg PO) was 16312 ± 2396 dpm; in experiment [3] (10 mg/kg PO) it was 15879 ± 2265 dpm; in experiment [3] (30 mg/kg PO), 10397 ± 931 dpm. For the same compound, the “NET Mean Specific Binding ± S.E.M.” value in experiment [4] (1 mg/kg PO) came out at 1602 ± 51 dpm; in experiment [4] (3 mg/kg PO), 1631 ± 92 dpm; in experiment [4] (10 mg/kg PO) it was 1553 ± 27 dpm; in experiment [4] (30 mg/kg PO), 1138 ± 59 dpm.
